We go through eight molecules from patent EP4650353A1 (Shanghai Institute of Materia Medica, Chinese Academy of …, priority 2023, dated 2024).

For one test, the system named is hGLP-1R KI mice. In words: Diet inhibition by Tris salts (food intake after single oral dose). Type of test: in vivo. The note with it: 30 mg/kg; for duration of the food intake reducing effect / food intake: Tris salt, single oral administration. As to the method: Mouse model: hGLP-1R KI mice, 8 female mice per experimental group.
Experimental procedure: Mice were separated into cages and fasted 6 hours in advance, and were given drugs by oral gavage at the beginning of the night cycle (7:00 PM). The weight of food in each cage was weighed at 0, 2.5, 5, 12 (7:00 AM at the beginning of the day cycle), and 24 hours after drug administration to calculate the food intake of mice.

The next test deals with T1, human GLP-1 receptor (Homo sapiens, UniProt P43220).
T1 construct: HA (N); expressed in transfected cells
T1 sequence (P43220 24-463): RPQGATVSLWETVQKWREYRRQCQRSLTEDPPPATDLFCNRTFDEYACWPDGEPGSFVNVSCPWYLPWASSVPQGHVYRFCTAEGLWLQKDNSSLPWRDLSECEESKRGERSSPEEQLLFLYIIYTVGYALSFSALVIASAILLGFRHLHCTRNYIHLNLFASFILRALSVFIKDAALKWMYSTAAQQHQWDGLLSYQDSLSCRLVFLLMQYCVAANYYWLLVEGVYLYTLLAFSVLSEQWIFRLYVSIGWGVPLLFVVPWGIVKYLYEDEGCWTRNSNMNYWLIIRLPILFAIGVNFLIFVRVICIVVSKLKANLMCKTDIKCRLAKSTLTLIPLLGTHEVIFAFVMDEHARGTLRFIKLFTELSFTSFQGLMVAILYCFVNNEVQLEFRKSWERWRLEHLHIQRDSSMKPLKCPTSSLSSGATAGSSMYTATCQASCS
The test can be described thus: GLP-1 receptor-mediated agonist activity: cAMP level in hGLP-1R/HEK293 cell line (HTRF). Format: cell-based. As to conditions: cAMP levels in hGLP-1R/HEK293 cell line; Table 1; read-out: determined EC50. Background: Changes in cAMP serve as a functional read-out for many G protein-coupled receptors.

Another test has as its system β-arrestin 1. In words: NanoBiT recruitment of β-arrestin 1 by GLP-1R in HEK293 cells.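 Further: 100% equals the maximal response of endogenous GLP-1.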 The note with it: Homo sapiens, read-out: maximum agonistic effect (Emax) recruiting β-arrestin 1. Type of test: cell-based. An excerpt:
(§1) The Promega NanoBiT protein-protein reaction system was used to detect the recruitment of β-arrestin 1 and β-arrestin 2 by GLP-1R. The NanoBit Protein-Protein Reaction System was a dual-subunit system based on NanoLuc luciferase that could be used to detect protein-protein interactions in cells. The LgBiT (17.6 kDa) and SmBiT (11 amino acids) subunits were fused to the proteins of interest, respectively. When the proteins of interest interact, the two subunits came into close proximity to form an enzyme with catalytic activity, which could catalyze the luminescence of the luciferase substrate. Firstly, the human GLP-1R gene was connected to the N-terminus of LgBit, the β-arrestin 1/2 gene was cloned to the C-terminus of SmBit, and the fusion protein was introduced into the pcDNA3.0 vector to construct plasmids expressing hGLP-1R-LgBit and SmBit-β-arrestin 1/2 fusion proteins. The hGLP-1R-LgBit plasmid and SmBit-β-arrestin 1 (or SmBit-β-arrestin 2) plasmid were co-transfected into HEK293 cells at a ratio of 1 µg plasmid/2×10^6 cells. Immediately after transfection, the cells were added to a 96-well white-bottom plate at a density of 4×10^5 cells/well, and the cells were cultured in an incubator (37°C, 5% CO2) for 20 hours.
(§2) After 20 hours, the liquid in the wells was discarded, 40 µL of fresh culture medium (DMEM+0.2% BSA, m/v) was added first, and then 10 µL of Nano-Glo Live Cell detection solution (Promega, #N2011) was added, and then the cells were placed in an incubator and incubated for 10 minutes. The compound was dissolved in DMSO and prepared into a storage solution with a concentration of 10mM. The experiment started with a concentration of 100µM. […] After the cells were incubated for 10 min, 25 µL of culture medium containing the compound was added to each well and incubated at room temperature for 5 min. The fluorescence signal was then detected using an Envision 2104 multi-function microplate reader (PerkinElmer). All samples were tested in triplicate, and the fluorescence signal ratio and the corresponding compound concentration were analyzed using GraphPad Prism 8 software.

The test system of a further test is β-arrestin 2. In words: NanoBiT recruitment of β-arrestin 2 by GLP-1R in HEK293 cells.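 Further: 100% equals the maximal response of endogenous GLP-1.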 Type of test: cell-based. As to conditions: Homo sapiens, read-out: maximum agonistic effect (Emax) recruiting β-arrestin 2.
Source text: as §1, §2

The target in a further test is hERG potassium channels (Homo sapiens, UniProt Q12809). In words: cell-based. As to the method:
CHO cells expressing hERG protein were cultured in 175 cm^2 culture flasks. When the cell density grew to 60-80%, the culture medium was removed, the cells were washed once with 7 mL PBS, and then 3 mL Detachin was added for digestion. After digestion was complete, 7 mL of culture medium was added to neutralize, then centrifuged. The supernatant was aspirated, and 5 mL of culture medium was added to resuspend to ensure that the cell density is 2-5×10^6/mL.
Both the single-cell high-impedance sealing and whole-cell mode formation processes were automatically completed by the Qpatch instrument. After obtaining the whole-cell recording mode, the cell was clamped at -80 mV. Before a 5-second +20 mV depolarizing stimulus was given, a 50-ms -50 mV pre-voltage was given, and then the cell was repolarized to -50 mV for 5 seconds and then returned to -80 mV. This voltage stimulation was applied every 15 seconds. After recording for 2 minutes, the extracellular solution was recorded for 2 minutes. Then the drug administration process began. The compound concentration started from the lowest tested concentration. Each tested concentration was given for 2 minutes. […] At least three cells were tested for each concentration (n≥3).
The compound stock solution was diluted with extracellular fluid, 5 µL of 20 mM compound stock solution was added to 2495 µL extracellular fluid, diluted 500 times to 40 µM, and then serially diluted 3 times in extracellular fluid containing 0.2% DMSO (v/v) to obtain the final concentration to be tested.
The experimental data were analyzed by XLFit software.

In test [1] the test system is hGLP-1 receptor knock-in mice. In words: Oral glucose tolerance test in mice. Type of test: in vivo. As to the method: (§3) Genetically engineered hGLP-1R gene knock-in mice, male, 8-10 weeks old, specific pathogen free (SPF) grade, were purchased from Biocytogen Jiangsu Gene Biotechnology Co., Ltd. All experimental animals were housed in the SPF-level environment of the National Compound Sample Library animal room, with a temperature of 24±2°C, a relative humidity of 40-60%RH, an air cleanliness level of 7, and a day and night light-dark cycle of 12h/12h; they were continuously supplied with cobalt-60 radiation-sterilized complete mouse granular feed (Shanghai Shilin Biotechnology Co., Ltd., maintenance feed for rats and mice), and were allowed to drink tap water (sterilized with high-pressure steam) without interruption, and were allowed to drink it freely. The cages were transparent polyetherimide cages (Suzhou Fengshi Experimental Animal Equipment Co., Ltd., CP-8 mouse cages), and the bedding was corn cobs (Tezhou Gumei Agricultural Technology Co., Ltd., used after high-pressure steam sterilization). There were 3-5 animals in each cage, and the cage card indicated the IACUC approval number, experiment number, experiment start time, person in charge, experimenter, animal source, group and animal number. The purchased mice were adapted to this breeding environment for at least 7 days before being used in experiments. The animal use methods in this study were approved by the IACUC Committee of the Shanghai Institute of Materia Medica.
60 minutes after oral administration, blood glucose was measured again as zero-point blood glucose. Then, 2 g/kg of sugar was orally administered, and blood glucose was measured using a blood glucose meter 15 minutes, 30 minutes, 60 minutes, and 90 minutes after sugar administration. In order to explore the effect of long-term administration on glucose tolerance, 2 g/kg of sugar was orally administered again […] the administration of the compound, and the blood glucose changes were measured at 180 min, 195 min, 210 min, 240 min, and 270 min.

For test [2], the system named is hGLP-1 receptor knock-in mice. The test can be described thus: Long-term administration in high-fat diet fed hGLP-1R mice for weight loss. Type of test: in vivo. As to conditions: ammonium salt. As to the method: as §3
The mice were weighed every day, and 24 hours after the last administration, the body fat and muscle content of the mice were detected using a Bruker desktop nuclear magnetic resonance spectrometer (model LF90II). • (4) Experimental results

Sequence of hERG potassium channels (Q12809 whole entry): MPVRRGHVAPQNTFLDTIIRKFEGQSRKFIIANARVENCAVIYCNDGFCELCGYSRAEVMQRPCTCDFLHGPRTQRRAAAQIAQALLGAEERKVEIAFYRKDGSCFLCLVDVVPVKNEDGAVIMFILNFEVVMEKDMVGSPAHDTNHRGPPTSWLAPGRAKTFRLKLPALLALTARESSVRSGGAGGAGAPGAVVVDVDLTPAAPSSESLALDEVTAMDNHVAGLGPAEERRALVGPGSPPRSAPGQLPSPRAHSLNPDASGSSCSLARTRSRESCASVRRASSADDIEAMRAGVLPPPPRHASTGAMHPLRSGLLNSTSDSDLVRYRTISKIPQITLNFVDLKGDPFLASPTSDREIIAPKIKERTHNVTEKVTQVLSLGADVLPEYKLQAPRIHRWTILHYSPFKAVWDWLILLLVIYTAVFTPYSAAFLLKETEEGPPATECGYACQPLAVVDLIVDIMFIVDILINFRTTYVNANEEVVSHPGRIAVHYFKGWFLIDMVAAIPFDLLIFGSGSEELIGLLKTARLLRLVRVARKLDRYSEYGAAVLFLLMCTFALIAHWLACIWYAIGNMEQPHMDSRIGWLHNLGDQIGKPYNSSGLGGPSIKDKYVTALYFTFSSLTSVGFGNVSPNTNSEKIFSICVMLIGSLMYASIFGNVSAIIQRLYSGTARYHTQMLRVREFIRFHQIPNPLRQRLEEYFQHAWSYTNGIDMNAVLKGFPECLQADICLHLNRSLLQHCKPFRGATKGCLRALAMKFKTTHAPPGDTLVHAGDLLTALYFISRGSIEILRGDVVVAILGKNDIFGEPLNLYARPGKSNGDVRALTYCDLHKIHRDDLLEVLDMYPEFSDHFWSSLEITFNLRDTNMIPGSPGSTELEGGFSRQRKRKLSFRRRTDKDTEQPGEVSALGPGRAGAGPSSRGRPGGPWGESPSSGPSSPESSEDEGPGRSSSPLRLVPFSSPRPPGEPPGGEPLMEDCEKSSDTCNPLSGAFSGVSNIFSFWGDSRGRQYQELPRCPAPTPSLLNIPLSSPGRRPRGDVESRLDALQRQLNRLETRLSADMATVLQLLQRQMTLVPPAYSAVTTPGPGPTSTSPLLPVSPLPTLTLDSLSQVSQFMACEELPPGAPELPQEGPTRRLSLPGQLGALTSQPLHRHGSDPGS

In the case of `[2H]C([2H])([2H])C([2H])([2H])Oc1cc(C(=O)O)cc2c1nc(CN1CCN(c3cccc4c3O[C@@](C)(c3ccc(C(F)(F)F)cc3F)O4)C=N1)n2C[C@@H]1CCO1` [Compound 82-1, 4-(ethoxy-d5)-2-((4-((S)-2-(2-fluoro-4-(trifluoromethyl)phenyl)-2-methylbenzo[d][1,3]dioxol-4-yl)-5,6-dihydro-1,2,4-triazin-1(4H)-yl)methyl)-1-(((S)-oxetan-2-yl)methyl)-1H-benzo[d]imidazole-6-carboxylic acid], in the test with hGLP-1R KI mice, the “duration of the food intake reducing effect” value is 24 h and the food intake result is reported as “significantly reduce the food intake”. Moreover, the EC50 (in general, the concentration giving half of the maximal effect) at human GLP-1 receptor came out at 0.0051 nM.
Take `COc1cc(Cl)ccc1COc1cccc(N2C=NN(Cc3nc4c(OC)cc(C(=O)O)cc4n3C[C@@H]3CCO3)CC2)n1` [Compound 20, (S)-2-((4-(6-((4-chloro-2-methoxybenzyl)oxy)pyridin-2-yl)-5,6-dihydro-1,2,4-triazin-1(4H)-yl)methyl)-4-methoxy-1-(oxetan-2-ylmethyl)-1H-benzo[d]imidazole-6-carboxylic acid]: the Emax in the test with β-arrestin 1 and in the test with β-arrestin 2 was 30 to 50% each time. Besides, the IC50 (in general, the point on the concentration scale where inhibition reaches its midpoint) at hERG potassium channels is above 40000 nM. Besides, the “effect compared with positive control PF-06882961 ammonium salt at the same dose” value in test [1] (1 mg/kg oral, oral glucose tolerance test) is on record as “better than the positive control PF-06882961 ammonium salt”. Moreover, the “blood glucose area under the curve” value in test [1] (ammonium salt, orally administered at 1 mg/kg, AUC(0-90), vs blank control) was “significantly reduce”. Moreover, the blood glucose concentration result in test [1] (ammonium salt, orally administered at 1 mg/kg, vs blank control) is “significantly reduce”.
In the case of `CCCOc1cc(C(=O)O)cc2c1nc(CN1CCC(c3cccc(OCc4ccc(C#N)cc4F)n3)CC1)n2C[C@@H]1CCO1` [Compound 3, (S)-2-((4-(6-((4-cyano-2-fluorobenzyl)oxy)pyridin-2-yl)piperidin-1-yl)methyl)-1-(oxetan-2-ylmethyl)-4-propoxy-1H-benzo[d]imidazole-6-carboxylic acid], the Emax in the test on β-arrestin 1 and with β-arrestin 2 was 30 to 50% throughout. Besides, the EC50 on human GLP-1 receptor was 0.0064 nM.
In the case of `O=C(O)c1cc(F)c2nc(CN3CCN(c4cccc(OCc5ccc(Cl)cc5F)n4)C=N3)n(C[C@@H]3CCO3)c2c1` [CN2022114139828 , Compound 2, reference compound], the Emax in the test on β-arrestin 1 and in the test with β-arrestin 2 was 75 to 80% in each case.
For the molecule `N#Cc1ccc(COc2cccc(C3CCN(Cc4nc5ccc(C(=O)O)cc5n4C[C@@H]4CCO4)CC3)n2)c(F)c1` [PF-06882961, reference compound], the Emax in the test on β-arrestin 1 and in the test on β-arrestin 2 was 75 to 80% each time. For the same molecule, in test [2] (30 mg/kg by gavage once a day, 15 days), the “weight gain of HFD-fed mice” value was “effectively inhibit the weight gain”. For the same molecule, the “reduce body weight compared with the blank control group” value in test [2] (30 mg/kg once a day, after 15 days of administration, HFD) was 10.2%.
As to `COc1cc(C#N)ccc1COc1cccc(C2CCN(Cc3nc4c(OC)cc(C(=O)O)cc4n3C[C@@H]3CCO3)CC2)n1` [Compound 4, (S)-2-((4-(6-((4-cyano-2-methoxybenzyl)oxy)pyridin-2-yl)piperidin-1-yl)methyl)-4-methoxy-1-(oxetan-2-ylmethyl)-1H-benzo[d]imidazole-6-carboxylic acid], the Emax with β-arrestin 1 and in the test on β-arrestin 2 was 30 to 50% each time.
Take `CCOc1cc(C(=O)O)cc2c1nc(CN1CCN(c3cccc4c3O[C@@](C)(c3ccc(C(F)(F)F)cc3F)O4)C=N1)n2C[C@@H]1CCO1` [Compound 81-1, 4-ethoxy-2-((4-((S)-2-(2-fluoro-4-(trifluoromethyl)phenyl)-2-methylbenzo[d][1,3]dioxol-4-yl)-5,6-dihydro-1,2,4-triazin-1(4H)-yl)methyl)-1-(((S)-oxetan-2-yl)methyl)-1H-benzo[d]imidazole-6-carboxylic acid]: in the test on hGLP-1R KI mice (at 5, 12 and 24 hours), the “inhibitory effect on eating compared with Tris salt of positive control PF-06882961 at the same dose” value is recorded as “significantly better than”. Also, in the test with hGLP-1R KI mice, the “duration of the food intake reducing effect” value is 24 h and the food intake entry is on record as “significantly reduce the food intake”. Besides, the EC50 on human GLP-1 receptor was determined as 0.0018 nM.
For the molecule `CCOc1cc(C(=O)O)cc2c1nc(CN1CCN(c3cccc4c3OC(C)(c3ccc(C(F)(F)F)cc3F)O4)C=N1)n2C[C@@H]1CCO1` (stereo partly drawn) [Compound 81, 4-ethoxy-2-((4-(2-(2-fluoro-4-(trifluoromethyl)phenyl)-2-methylbenzo[d][1,3]dioxol-4-yl)-5,6-dihydro-1,2,4-triazin-1(4H)-yl)methyl)-1-(((S)-oxetan-2-yl)methyl)-1H-benzo[d]imidazole-6-carboxylic acid], on human GLP-1 receptor, the EC50 was 0.0084 nM. Moreover, on hERG potassium channels, the IC50 was above 40000 nM.
